Converted amounts (≈) assume the structure as drawn.

The values below come from patent US20100056520A1, “FORMULATIONS OF PHOSPHOLIPASE ENZYME INHIBITORS” (priority 2006, published 2010).

A short description of data set [1]: Rat oral absorption/bioavailability after single oral dose of 25 mg/kg. Format: in vivo, rats. The conditions noted are these: for oral exposure with addition of 2% Tween 80: 2% Tween 80/0.5% MC vehicle; for bioavailability: rat, in vivo, rats, read-out: estimated bioavailability; for bioavailability / oral absorption in rats: single oral dose of 25 mg/kg in 2% Tween/0.5% MC. From the text:
(§1) Based on the animal data and solubility in pharmaceutical acceptable excipients, formulation development for first in human studies was undertaken based on this formulation.

A short description of data set [2]: Solubility measured at room temperature in water, acid and basic conditions (HPLC). Format: physicochemical. Here is the method:
The solubility of 4-(3-{5-chloro-1-(diphenylmethyl)-2-[2-({[2-(trifluoromethyl)benzyl]sulfonyl}amino)ethyl]-1H-indol-3-yl}propyl)benzoic acid was measured at room temperature in water, acid and basic conditions.
The solubility of 4-(3-{5-chloro-1-(diphenylmethyl)-2-[2-({[2-(trifluoromethoxy)benzyl]sulfonyl}amino)ethyl]-1H-indol-3-yl}propyl)benzoic acid was measured at room temperature in water, acid and basic conditions.
The solubility of 4-(3-{5-chloro-1-(diphenylmethyl)-2-[2-({[2-fluoro-6-(trifluoromethyl)benzyl]sulfonyl}amino)ethyl]-1H-indol-3-yl}propyl)benzoic acid was measured at room temperature in water, acid and basic conditions.

Data set [3] is described as follows: Solubility in 2% Tween 80/0.5% methylcellulose vehicle. Format: physicochemical. The conditions noted are these: for solubility: 2% Tween 80/0.5% methylcellulose vehicle, aqueous with cosolvent or surfactant or cyclodextrin, read-out: solubility in 2% Tween 80/0.5% methylcellulose (MC) vehicle.
Source text: as §1

The subject of data set [4] is ApoE Mice. Description: Minimum efficacious exposure in ApoE mice. Format: in vivo.
The test system of data set [5] is carrageenan-induced paw edema. The experiment in a line: Rat carrageenan-induced paw edema (CPE) study. Format: in vivo. The procedure: Data from a rat carrageenan-induced paw edema (CPE) study indicated the minimum efficacious exposure of 4-(3-{5-chloro-1-(diphenylmethyl)-2-[2-({[2-(trifluoromethyl)benzyl]sulfonyl}amino)ethyl]-1H-indol-3-yl}propyl)benzoic acid was 1360 ng*hr/ml.

For `O=C(O)c1ccc(CCCc2c(CCNS(=O)(=O)Cc3c(F)cccc3C(F)(F)F)n(C(c3ccccc3)c3ccccc3)c3ccc(Cl)cc23)cc1` [4-(3-{5-chloro-1-(diphenylmethyl)-2-[2-({[2-fluoro-6-(trifluoromethyl)benzyl]sulfonyl}amino)ethyl]-1H-indol-3-yl}propyl)benzoic acid], in data set [1], the “oral exposure with addition of 2% Tween 80” value is listed as “did not afford adequate oral exposure”, the bioavailability is below 1% and the “oral absorption in rats” value is reported as “relatively low”. The solubility in data set [2] (water, acid and basic conditions, aqueous buffer, below the HPLC detection limit, read-out: intrinsic solubility over the pH range of 1 to 11) was below 0.1 µg/mL. In data set [3], the solubility was 115 µg/mL (≈ 151 µM).
Turning to `O=C(O)c1ccc(CCCc2c(CCNS(=O)(=O)Cc3ccccc3OC(F)(F)F)n(C(c3ccccc3)c3ccccc3)c3ccc(Cl)cc23)cc1` [4-(3-{5-chloro-1-(diphenylmethyl)-2-[2-({[2-(trifluoromethoxy)benzyl]sulfonyl}amino)ethyl]-1H-indol-3-yl}propyl)benzoic acid], in data set [1], the “oral exposure with addition of 2% Tween 80” value is recorded as “did not afford adequate oral exposure”, the bioavailability was around 1.8% and the “oral absorption in rats” value is on record as “relatively low”. The solubility in data set [2] (water, acid and basic conditions, water, acid and basic conditions, below the HPLC detection limit, read-out: intrinsic solubility in all conditions) was below 0.0212 µg/mL. For the same compound, in data set [3], the “solubility enhancement by addition of 2% Tween 80” value is listed as 23.490 fold, the “solubility in 2% Tween 80/0.5% methylcellulose (MC) vehicle” value amounted to 498 µg/mL (≈ 654 µM) and the solubility came to 496 µg/mL (≈ 652 µM). The minimum efficacious exposure in data set [4] stood at 2800 ng·h/mL.
Turning to `O=C(O)c1ccc(CCCc2c(CCNS(=O)(=O)Cc3ccccc3C(F)(F)F)n(C(c3ccccc3)c3ccccc3)c3ccc(Cl)cc23)cc1` [4-(3-{5-chloro-1-(diphenylmethyl)-2-[2-({[2-(trifluoromethyl)benzyl]sulfonyl}amino)ethyl]-1H-indol-3-yl}propyl)benzoic acid], the solubility in data set [2] (aqueous solution (water, acid and basic conditions), aqueous buffer, below the HPLC detection limit, read-out: intrinsic solubility of the free acid) is below 0.031 µg/mL; in data set [2] (aqueous solution (water, acid and basic conditions), aqueous buffer, read-out: solubility of the anion), 0.11 µg/mL (≈ 0.148 µM). This compound also yielded a minimum efficacious exposure in data set [5] of 1360 ng·h/mL.

A word on the bioavailability: it is the share of a dose that reaches the circulation, judged against a reference dose that is usually intravenous.
